Test results: US7544711B2, “Use of nitroderivatives in urinary incontinence” (Nicox S.A., priority 1996, dated 2009)

Columns and labels:
[1] = system: gastroenteric tract of rats; test: In vivo gastrointestinal safety study; set-up: species or system rat
Source text: Forty Sprague Dawley rats weighing about 300 g were randomly divided into 4 groups and orally treated twice a day for 4 days according to the following experimental scheme:
Eighteen hours after the last treatment the rats were sacrified to determine any gastrointestinal damage.

[2] = system: normal urinary bladder of conscious rats; test: Cystometrogram, normal urinary bladder of conscious rats; format: in vivo, rat; settings: 5 mg/kg oral, 4 hours after dosing, IC=interval between contractions
Description: Cystometrograms of conscious rats were determined according to the method described by Howe B. B et al. (1995) (see Example 9).
Male Wistar rats weighing about 500 g were used. The rats were anaesthetised with Nembutal. After opening their abdomen and exposing their urinary bladder, a catheter filled with physiological solution was implanted in the urinary bladder and caused to emerge from the back of the animals. The abdominal muscle and skin were then sutured. 48 hours after surgery the animals were placed in metabolic cages and the catheters were connected to a perfusor which perfused 0.18 ml/min of a physiological solution into the urinary bladder, and to a pressure transducer in order to measure intravesical pressure. After stabilisation for 60 minutes, the animals were orally treated with the test products and urination frequency was than measured during 4 hours after dosing.

[3] = system: pig urethral smooth muscle; test: Relaxing effect in pig urethral smooth muscle; format: cell-based; settings: 10^−5 M; for Relaxation % 1: first treatment; for Relaxation % 1 / Relaxation % 2: 100% = highest relaxation in medium without Ca++; for Relaxation % 2: second consecutive treatment; for relaxing activity and tachyphylaxis (in words): two consecutive treatments
Description: Samples of urethra were removed from female pigs about 6 months old.
The urethra was opened longitudinally and samples of smooth muscle about 1×2×6 mm in size were removed from an area about 4 mm below ureteral orifices. The samples of smooth muscle were placed in baths for isolated organs, incubated at 37° C. and subjected to a 10 mN tension and connected to a force transducer for measuring mechanical activity. After a period of balancing of about 60 minutes, the prepared samples were exposed to Krebs solution without Ca++ to determine the highest relaxation level. Normal tone was then restored by adding Krebs solution. The relaxation effects of the test derivatives were then measured. The test wasa repeated two consecutive times for each prepared sample in order to evaluate any tachyphylaxis effects.

[4] = target: T1, nitroxy-sinthetase (Rattus norvegicus, UniProt Q06518); test: LPS-induced nitroxysynthetase activity in rat neutrofils after i.p. dosing; format: in vivo; settings: 10 mg/kg i.p.; LPS 5 mg/kg i.v.; rat neutrofils four hours later; compared to the group treated with the vehicle alone
T1 construct: Blood was collected for neutrofil isolation; from tissue; host or cells: neutrophils isolated from blood of LPS-treated Wistar rats
Description: The nitroxy-sinthetase inhibiting activity induced by lipopolisaccharide (LPS) was determined in rat neutrofils after administration of any of the test compounds and compared with that obtained after treatment with the suspending vehicle alone (0.5% carboxymethyl cellulose, 5 ml/kg) and a product used as comparison. Briefly, Wistar rats fasted for 24 hours before treatment received one of the test compounds (10 mg/kg) intraperitoneally or the vehicle LPS (5 mg/kg) intravenously (caudal vein).
Four hours later the animals were sacrified. Blood was collected for neutrofil isolation.
The enzymatic activity was determined according to the od described by Assreuy J. et al. Feedback inhibition of nitric oxide sinthase activity by nitric oxide, British Journal of Pharmacology, […], 1993.

[5] = system: normal urinary bladders of anaesthetised rats; test: Urinary bladder voiding reflex in anaesthetised rats; format: in vivo, rat; settings: 18 hours after last treatment, controls = 100
Description: 40 Sprague Dawley rats weighing about 300 g were randomly divided into 4 groups and orally treated twice a day for 4 days according to the following experimental scheme: 18 hours after the last treatment, the effects on the urinary bladder voiding reflex were evaluated using the method described by Maggi C. A. et al., Prostanoids modulate reflex micturition by acting through capsaicin-sensitive afferents, European Journal of Pharmacology, 105-112, 1988. The animals were anaesthetised with urethane, the urinary bladder was prepared for intraluminal pressure measurement. After a stabilisation period with an empty urinary bladder, this was progressively filled with a physiological solution by slow infusion (0.046 ml/min). A contraction of the urinary bladder was observed upon reflex triggering. The volume of physiological solution and intraluminal pressure required to evoke the reflex (volume and pressure thresholds) were measured. […] All tested products increased this threshold and can, therefore, be considered useful in case of detrusor instability.

[6] = system: normal urinary bladder of conscious dogs; test: Cystometrogram, normal urinary bladder of conscious dogs; format: in vivo, dog; settings: 4 hours following dosing, IC=interval between contractions
Description: The cystometrogram of conscious dogs was determined in accordance with the method described by Howe B. B. et al., ZENECA ZD 6169: a NOVEL KATP Channel opener with in vivo selectivity for urinary bladder, Journal of Pharmacology and Experimental Therapeutics, 274, 884-890, 1995.
Female Beagle dogs with urinary bladder catheterised through the urethra by operating in sterile conditions, were used. Catheters were connected to a perfusor which perfused into the urinary bladder a physiological solution and to a pressure transducer in order to measure intravesical pressure. After 15 minute stabilisation, a 30 ml bolus of physiological solution was perfused into the urinary bladder in order to measure increased intravesical pressure and a series of smaller boluses were then perfused until spontaneous contractions were observed. After a period of contraction stabilisation, contracting activity was monitored for 60 minutes. The animals were then treated orally with the test products and urination frequency was then measured during 4 hours following dosing in […].

[7] = system: isolated rat detrusor; test: Contraction inhibiting activity in isolated rat detrusor (40 mM KCl); format: cell-based
Description: Male Wistar rats weighing 200 to 300 g were used. The method used is described by Zhou Q. et al. (1995) (see Example 13). After sacrificing the rats by cervical displacement the urinary bladder was isolated and horizontal strips of detrusor muscle about 2 mm wide and about 5 mm long were obtained from the median region. The strips were placed in baths for isolated organs containing Krebs liquid and subjected to a 1 g tension. Tension variations during the test were measured isometrically by using a pressure transducer connected to a polygraph. The inhibitory effect of a pre-treatment with the test derivatives on contraction induced by 40 mM KCl was determined versus drugs having an opening potassium channel activity (cromakalin, nicorandil) nitroderivatives (nitroglycerin, nicorandil) and anti-inflammatories (indomethacin, naproxen, nimesulide).

[8] = system: normal urinary bladder strips; test: Electrically induced contraction of urinary bladder strips, normal rats; format: cell-based, rat; settings: 10^−6 M; normal tissue; 1/7 Hz electrical stimulation
Source text: (§1) The vesical hypertrophy model secondary to urethral obstruction in rats described by Malmgren A. et al.: Cystometrical evaluation of bladder instability in rats with intravesical outflow obstruction, The Journal of Urology, 1987, 137, 1291-1294, was used in order to evaluate the effect of the drugs on hyperactive vesical muscle.
(§2) Male Sprague Dawley rats weighing about 250 g were used. In order to obtain partial urethral obstruction, the rats were anaesthetised with Nembutal and the urinary bladder and urethra were exposed by abdominal incision. A ligature was made around the urethra in the presence of an intraluminal cannula with 1 mm diameter. After suturing the abdominal wall the animals were stabulated for 6 weeks in order for vesical hypertrophy to start.
(§3) The in vitro experiments were conducted with the parallel use of strips obtained from normal rats and rats with vesical hypertrophy.
(§4) The in vitro urinary bladder strips were prepared as described above and the inhibition induced by the drugs on contraction induced by 1/7 Hz electrical stimulation lasting 1 msec., an above maximal voltage, produced by two platinum electrodes, was measured.

[9] = system: hypertrophic urinary bladder strips; test: Electrically induced contraction of urinary bladder strips, rats with vesical hypertrophy; format: cell-based, rat; settings: 10^−6 M; hypertrophic tissue; 1/7 Hz electrical stimulation
Source text: as §1, §2, §3, §4

[10] = system: rat femoral artery strips; test: Relaxing activity on vessel smooth muscle (phenylephrine-contracted femoral artery strips); format: cell-based; settings: contractions induced by 3×10^−5 M phenylephrine
Source text: Male Wistar rats weighing 200 to 300 g were used. The method used is described by Zhou Q. et al. The inhibitory mechanism of nicorandil in isolated rat urinary bladder and femoral artery, European Journal of Pharmacology, 153-159, 1995. After sacrifing the rats by cervical displacement, the femoral arteries were isolated for the preparation of helicoidal strips about 1×15 mm in size, from which the endothelium was removed. The prepared strips were placed in baths for isolated organs containing Krebs liquid and subjected to a weight of 0.5 g. Tension variations during the test were isometrically measured by means of a pressure transducer connected to a polygraph. The inhibitory effect of a treatment with the test derivatives on contractions induced by 3×10^−5 M phenylephrine versus reference preparations having a potassium channel opening activity and/or NO donors was measured.

[11] = 5 mg/kg oral twice a day for 4 days
[12] = 3 mg/kg oral twice a day for 4 days, rats
[13] = Rattus norvegicus, 10^−4 M, contraction induced by 40 mM KCl
[14] = 3 mg/kg oral twice a day for 4 days

O=C(Oc1cccc(CO[N+](=O)[O-])c1)c1ccccc1Nc1cccc(C(F)(F)F)c1 [NO-F]
gastrointestinal damage (in words) ([1]; 5 mg/kg oral twice a day for 4 days, group of 10 rats): one animal with a gastric ulcer and an animal with a duodenal ulcer
IC treated/IC baseline [2]: 1.62
Relaxation % 1 [3]: 45.8%
Relaxation % 2 [3]: 52.1%
NITROXY-SYNTHETASE ACTIVITY [4]: 63 percentage
Pressure threshold (%) [5, 11]: 203%
Volume threshold (%) [5, 11]: 205%
IC treated/IC baseline ([6]; 3 mg/kg oral): 1.76

COc1ccc2cc([C@H](C)C(=O)O)ccc2c1 [Naproxen]
inhibition at 100 µM ([7]; Rattus norvegicus, 5 · 10^−4 M, contraction induced by 40 mM KCl): 15.2%

COc1ccc2c(c1)c(CC(=O)O)c(C)n2C(=O)c1ccc(Cl)cc1 [Indomethacin]
animals with diffuse adherences [1, 12]: 3/10
animals with ulceration also in the intestines [1, 12]: 7/19
gastrointestinal damage (in words) [1, 12]: ulceration was observed in the stomachs
IC treated/IC baseline [2]: 1.34
inhibition at 100 µM [7, 13]: 38.5%
Contraction % [8]: 78.2%
Contraction % [9]: 76.3%
Relaxation % 1 [3]: 1.0%
Relaxation % 2 [3]: 1.2%
relaxing activity and tachyphylaxis (in words) [3]: practically inactive
Pressure threshold (%) [5, 14]: 190%
Volume threshold (%) [5, 14]: 198%
IC treated/IC baseline ([6]; 3 mg/kg oral): 1.25

O=C(NCCO[N+](=O)[O-])c1cccnc1 [Nicorandil]
inhibition at 100 µM [7, 13]: 26.4%
inhibition at 1 µM ([10]; Rattus norvegicus, 10^−6 M): 32.6%

CC1(C)Oc2ccc(C#N)cc2C(N2CCCC2=O)C1O (centres unmarked) [Cromakalim]
inhibition at 1 µM ([7]; Rattus norvegicus, 10^−6 M, contraction induced by 40 mM KCl): 33.3%
Contraction % [8]: 50.5%
Contraction % [9]: 35.7%
inhibition at 0.3 µM ([10]; Rattus norvegicus, 3 × 10^−7 M): 54.1%
IC treated/IC baseline ([6]; 0.5 mg/kg oral): 1.48

O=[N+]([O-])OCC(CO[N+](=O)[O-])O[N+](=O)[O-] [Nitroglycerin]
inhibition at 10 µM ([7]; Rattus norvegicus): 28.7%
Relaxation % 1 [3]: 32.1%
Relaxation % 2 [3]: 7.3%
relaxing activity and tachyphylaxis (in words) [3]: active but induced tachyphylaxis

CS(=O)(=O)N(C(=O)CCCCCO[N+](=O)[O-])c1ccc([N+](=O)[O-])cc1Oc1ccccc1 [NO-M, N-[(2-PHENOXY-4-NITRO)PHENYL]-N-(6-NITROXY)HEXANOYLMETHANE-SULPHONAMIDE]
Inhibition % ([7]; 10^−4 M, contraction induced by 40 mM KCl): 48.1%
Inhibition % ([10]; 10^−4 M): 19.5%

CS(=O)(=O)Nc1ccc([N+](=O)[O-])cc1Oc1ccccc1 [Nimesulide]
inhibition at 100 µM [7, 13]: 41.8%

N=C(N)NCCC[C@H](N)C(=O)O [L-arginine]
Relaxation % 1 [3]: 22.7%
Relaxation % 2 [3]: 12.2%
relaxing activity and tachyphylaxis (in words) [3]: active but induced tachyphylaxis

O=C(O)c1ccccc1Nc1cccc(C(F)(F)F)c1 [Flufenamic acid, 2-[[3-(trifluoromethyl)phenyl]-amino]benzoic acid]
IC treated/IC baseline [2]: 1.42
Relaxation % 1 [3]: 12.2%
Relaxation % 2 [3]: 13.2%
relaxing activity and tachyphylaxis (in words) [3]: has itself a myorelaxing activity
NITROXY-SYNTHETASE ACTIVITY [4]: 98 percentage
IC treated/IC baseline ([6]; 3 mg/kg oral): 1.42

COc1ccc2c(c1)c(CC(=O)Oc1cccc(CO[N+](=O)[O-])c1)c(C)n2C(=O)c1ccc(Cl)cc1 [NO-I]
animals with gastric ulcers ([1]; 3 mg/kg oral twice a day for 4 days, group of 10 rats): 1
IC treated/IC baseline [2]: 1.48
inhibition at 100 µM [7, 13]: 46.3%
Contraction % [8]: 61.5%
Contraction % [9]: 40.3%
Relaxation % 1 [3]: 39.3%
Relaxation % 2 [3]: 37.2%
Pressure threshold (%) [5, 14]: 223%
Volume threshold (%) [5, 14]: 226%
inhibition at 100 µM ([10]; Rattus norvegicus, 10^−4 M): 22.2%
IC treated/IC baseline ([6]; 3 mg/kg oral): 1.43
